Assay results taken from US10179779B2, “Polymorph forms” (RaQualia Pharma Inc., priority 2012, dated 2019).

Columns and labels:
Format in all cases: physicochemical
[1] = Hygroscopicity study by dynamic vapor sorption (DVS) analysis; conditions: for weight gain %: 25° C.; for weight gain % / water absorbed: DVS; for water absorbed: under 95% RH at 25° C.
Method: Hygroscopicity study is performed using Surface Measurement Systems DVS-1. The sample is placed on a microbalance in the instrument and the weight change during the sorption/desorption cycle at 25° C. is monitored. One of the sorption/desorption programs consists of a sorption scan from 0 to 95% relative humidity (RH) and a desorption scan from 95 to 10% RH. The other consists of a sorption scan from 40 to 95% RH and desorption scan from 95 to 0% RH, followed by a second sorption scan from 0 to 40% RH. Both programs are carried out at 5% RH increments and the sample is allowed to equilibrate for 360 minutes or until equilibration had been attained at each step. At the end of the DVS experiment the sample is measured by PXRD.
In the hygroscopicity study by dynamic vapor sorption (DVS) analysis, both Polymorph Form III and Polymorph Form V absorb less than 1.2 wt % under 95% relative humidity (RH) at 25° C. On the other hand, the white solid disclosed in the prior art WO2006/090224 and Polymorph Form I absorb 15 wt % or 14 wt % of water under 95% RH at 25° C.

[2] = Solid-state stability study (constant temperature/humidity chamber; HPLC, PXRD); conditions: for purity after storage: 40° C./75% RH for 6 months (rounded)
Method: HPLC data are obtained by Waters Alliance 2695 HPLC system with 2996 PDA detector using the following conditions; • Column: Inertsil ODS-3 (3 micrometers, 4.6×150 mm), • Eluent: acetonitrile/10 mM ammonium acetate=32:68, • Detection: UV at 215 nm, • Flow rate: 1 mL/min, and • Column temperature: 40° C.
Solid-state stability study is performed using Nagano Science Constant temperature/humidity control chamber LH-20-11 M, LH-21-11 M, LTL-200D3CJ-14 or LTX-01. […] The crystalline form, thermal behavior, purity and/or weight change of the resultant sample after the exposure or irradiation are evaluated by PXRD, TG/DTA or DSC, HPLC, microbalance, respectively.

[3] = Thermal transformation of crystal form (variable-temperature PXRD); conditions: for temperature at which transformation to another polymorph form begins: heating, Form I to Form II, Form III to Form IV
Method: The PXRD analyses are performed using a Rigaku RINT-TTR X-ray powder diffractometer using Cu-Kalpha radiation. The samples can also be measured under the high/low temperature condition by using the attachment of the variant-temperature sample holder. The instrument is equipped with a fine focus X-ray tube. The tube voltage and amperage are set to 50 kV and 300 mA respectively. The divergence and scattering slits are set at 0.5° and the receiving slit is set at 0.15 mm. Diffracted radiation is detected by a NaI scintillation detector. A theta-two theta continuous scan at 4°/min (step size 0.02°) from 3 to 40(°) 2-theta is used. A silicon standard is analyzed to check the machine alignment. Data are collected and analyzed using-Rigaku X-ray system. Samples are prepared for analysis by placing them in an aluminum sample holder that is horizontally rotated at 60 rpm during data acquisition.
4-{[4-({[4-(2,2,2-Trifluoroethoxy)-1,2-benzisoxazol-3-yl]oxy}methyl)piperidin-1-yl]methyl}-tetrahydro-2H-pyran-4-carboxylic acid Polymorph Form I (5 mg) is placed on the temperature-variable sample holder of PXRD, and the temperature of the sample holder is raised to 120° C. and kept for 10 min., then cooled down to room temperature without nitrogen flow to the sample holder to afford Polymorph Form II of 4-{[4-({[4-(2,2,2-trifluoroethoxy)-1,2-benzisoxazol-3-yl]oxy}methyl)piperidin-1-yl]methyl}-tetrahydro-2H-pyran-4-carboxylic acid. Conversion to the Polymorph Form II is confirmed by in situ monitoring of PXRD spectrum.
4-{[4-({[4-(2,2,2-Trifluoroethoxy)-1,2-benzisoxazol-3-yl]oxy}methyl)piperidin-1-yl]methyl}-tetrahydro-2H-pyran-4-carboxylic acid Polymorph Form III begins to transform to Polymorph Form IV at around 90° C. Conversion to the Polymorph Form IV is confirmed by in situ monitoring of PXRD spectrum (variable-temperature PXRD measurement).

[4] = 25° C./60% RH, 40° C./75% RH and/or Xenon lamp
[5] = 40° C./75% RH for 1 month, HPLC
[6] = 40° C./75% RH for 6 months, HPLC
[7] = storage at 40° C./75% RH for 1 month, HPLC
[8] = storage at 40° C./75% RH for 6 months, HPLC

weight gain % ([1]; 85% RH) [%] | weight gain % ([1]; 90% RH) [%] | weight gain % ([1]; 95% RH) [%] | water absorbed [1] [wt %] | solid-state stability, comparison in words [2] | solid-state stability (in words) [2, 4] | Purity (Area %) Main peak [2, 5] [Area %] | purity after storage [2] [%] | Purity (Area %) Main peak [2, 6] [Area %] | time to transformation to Polymorph Form III ([2]; 70° C./75% RH) [days] | Assay Remaining % [2, 7] [%] | Assay Remaining % [2, 8] [%] | temperature at which transformation to another polymorph form begins [3] | hygroscopicity in comparison with the white solid of WO2006/090224 [1] | solid-state stability (in words) ([2]; 70° C./75% RH) | remaining ([2]; 70° C./75% RH, after 3 weeks, HPLC) [%] | temperature up to which the form is stable [3] | SMILES | change of crystal form on storage ([2]; 25° C./60% RH)
0.065 | 0.089 | 14 | 14 | more stable than the white solid | stable | 99.4 | 96 | 95.6 | ≤ 1 | 98 | 87 | around 110 °C | – | – | – | – | O=C(O)C1(CN2CCC(COc3noc4cccc(OCC(F)(F)F)c34)CC2)CCOCC1 [Polymorph Form I, 4-{[4-({[4-(2,2,2-trifluoroethoxy)-1,2-benzisoxazol-3-yl]oxy}methyl)piperidin-1-yl]methyl}-tetrahydro-2H-pyran-4-carboxylic acid] | gradually transforms to Polymorph Form III
– | – | – | – | more stable than the white solid | – | – | – | – | – | – | – | – | – | – | – | – | O=C(O)C1(CN2CCC(COc3noc4cccc(OCC(F)(F)F)c34)CC2)CCOCC1 [Polymorph Form II, 4-{[4-({[4-(2,2,2-trifluoroethoxy)-1,2-benzisoxazol-3-yl]oxy}methyl)piperidin-1-yl]methyl}-tetrahydro-2H-pyran-4-carboxylic acid] | –
– | – | – | – | – | – | – | – | – | – | – | – | – | – | – | – | up to 115 °C | O=C(O)C1(CN2CCC(COc3noc4cccc(OCC(F)(F)F)c34)CC2)CCOCC1 [Polymorph Form IV, 4-{[4-({[4-(2,2,2-trifluoroethoxy)-1,2-benzisoxazol-3-yl]oxy}methyl)piperidin-1-yl]methyl}-tetrahydro-2H-pyran-4-carboxylic acid] | –
0.74 | 0.85 | 1.1 | – | – | – | – | – | – | – | – | – | – | lower hygroscopicity | – | – | – | O=C(O)C1(CN2CCC(COc3noc4cccc(OCC(F)(F)F)c34)CC2)CCOCC1 [Polymorph Form V, 4-{[4-({[4-(2,2,2-trifluoroethoxy)-1,2-benzisoxazol-3-yl]oxy}methyl)piperidin-1-yl]methyl}-tetrahydro-2H-pyran-4-carboxylic acid] | –
0.99 | 5.3 | 15 | 15 | – | – | – | – | – | – | – | – | – | – | – | – | – | O=C(O)C1(CN2CCC(COc3noc4cccc(OCC(F)(F)F)c34)CC2)CCOCC1 [White solid disclosed in the prior art WO2006/090224] [4-{[4-({[4-(2,2,2-trifluoroethoxy)-1,2-benzisoxazol-3-yl]oxy}methyl)piperidin-1-yl]methyl}-tetrahydro-2H-pyran-4-carboxylic acid, reference compound] | –

SMILES | weight gain % ([1]; 85% RH) [%] | weight gain % ([1]; 90% RH) [%] | weight gain % ([1]; 95% RH) [%] | water absorbed [1] [wt %] | solid-state stability, comparison in words [2] | solid-state stability (in words) [2, 4] | Purity (Area %) Main peak [2, 5] [Area %] | purity after storage [2] [%] | Purity (Area %) Main peak [2, 6] [Area %] | time to transformation to Polymorph Form III ([2]; 70° C./75% RH) [days] | Assay Remaining % [2, 7] [%] | Assay Remaining % [2, 8] [%] | temperature at which transformation to another polymorph form begins [3] | hygroscopicity in comparison with the white solid of WO2006/090224 [1] | solid-state stability (in words) ([2]; 70° C./75% RH) | remaining ([2]; 70° C./75% RH, after 3 weeks, HPLC) [%] | temperature up to which the form is stable [3] | change of crystal form on storage ([2]; 25° C./60% RH)
O=C(O)C1(CN2CCC(COc3noc4cccc(OCC(F)(F)F)c34)CC2)CCOCC1 [Polymorph Form III, 4-{[4-({[4-(2,2,2-trifluoroethoxy)-1,2-benzisoxazol-3-yl]oxy}methyl)piperidin-1-yl]methyl}-tetrahydro-2H-pyran-4-carboxylic acid] | 0.48 | 0.53 | 0.60 | – | more excellent solid-state stability than Polymorph Form I | stable | 99.7 | 99 | 99.1 | – | 99 | 97 | around 90 °C | lower hygroscopicity | chemically and physically stable | 100 | – | –
